# Like-named read-outs stand apart in the source and are kept apart here.
# System: Polymorphonuclear Neutrophils (PMN)
# Test: In vitro phagocytosis of boar sperm by PMN (phagocytosis assay)
# Type: cell-based, pig
# Conditions: for % of phagocytosed sperm: Exp. 1; for inhibition at 200 µM / inhibition at 500 µM / inhibition at 1000 µM / inhibition at 2000 µM: Sus scrofa, Polymorphonuclear neutrophil, read-out: % inhibition (percentage decrease of phagocytosis relative to control)
# Experimental: Tyrode's medium was used as described as “standard Tyrode's medium” in […] et al. ([…], Harrison, R A P, Miller, N G A, Topper, E K, and Woelders, H, 1998, Enhanced Binding of Zona Pellucida Proteins to the Acrosomal Region of Intact Boar Spermatozoa in Response to Fertilizing Conditions: A Flow Cytometric Study. […] Serum was prepared from blood collected from 11 primiparous sows, pooled, and frozen in aliquots at -80° C. Per experiment, 20 ml peripheral blood of a single Dutch Landrace sow (each experiment a different sow) was collected in heparinized vacutainers (Venoject, Omnilabo, Breda, The Netherlands). The peripheral blood was subsequently diluted with an equal volume of phosphate buffered saline (PBS). […] The supernatant, including the mononuclear cells at the interface, was removed. The pellet was resuspended in 2 ml of ice-cold distilled water to lyse the erythrocytes. […] The PMNs were pelleted by centrifugation for 10 min at 400×g and the lysis procedure was repeated. […] All cell suspensions were pooled together, mixed well, and subjected to centrifugation. The PMN were resuspended in TM-s with inactivated complement, and the cell concentration was determined using a hemocytometer. The PMN preparation was stored overnight at 4° C. […] The viability, assessed by trypan blue exclusion, was >98%. Semen was obtained from Dutch A.I. stations. Per experiment, semen was used from a single Yorkshire breeding boar (each experiment a different boar). At the AI-station, the semen was diluted to a concentration of approximately 30×10^6 cells/ml in Beltsville Thawing Solution (BTS) (Johnson et al., 1988). The diluted semen was stored at 17° C. for up to 48 hours, until the diluted semen sample was used. […] Aliquots of 80 μl of the PMN suspension (see, PMN isolation and preparation of PMNs) in TM or TM-s, with either intact or inactivated complement, were transferred to a 96-well polystyrene microtest plate. […] The samples were incubated with gentle swirling on a test plate shaker. […] The heparin facilitates dissociation of agglutinated PMNs. The samples were thoroughly mixed, left for 15 min., and mixed again. […] The frozen-thawed semen was taken from a large stock of semen from one ejaculate and washed 3 times in PBS prior to use. […] The mounts enabled observation and counting of fluorescently labeled spermatozoa inside and outside the phagocytes. By focusing at different levels in the mount, spermatozoa that were located above or below the PMN could be distinguished from those that were phagocytosed. In many PMNs that had ingested a spermatozoon, the presence of the sperm nucleus or tail caused a conspicuous change of the shape of the PMN. Two hundred spermatozoa were evaluated and classified as inside or outside the PMN (i.e., phagocytosed or not phagocytosed). The same fixed mounts were used to assess the acrosome morphology of the non-phagocytosed spermatozoa at the moment of fixation.
# [1] = Exp. 2, 0.2 mM, without pre-incubation, 15 min
# [2] = Exp. 2, 0.2 mM, without pre-incubation, 30 min
# [3] = Exp. 2, 0.2 mM, without pre-incubation, 60 min
# [4] = Exp. 2, 0.5 mM, after pre-incubation, 15
# [5] = Exp. 2, 0.5 mM, after pre-incubation, 30
# [6] = Exp. 2, 0.5 mM, after pre-incubation, 60
# [7] = Exp. 2, 0.5 mM, without pre-incubation, 15 min
# [8] = Exp. 2, 0.5 mM, without pre-incubation, 30 min
# [9] = Exp. 2, 0.5 mM, without pre-incubation, 60 min
# [10] = Exp. 2, 1 mM, after pre-incubation, 15
# [11] = Exp. 2, 1 mM, after pre-incubation, 30
# [12] = Exp. 2, 1 mM, after pre-incubation, 60
# [13] = Exp. 2, 1 mM, without pre-incubation, 15 min
# [14] = Exp. 2, 1 mM, without pre-incubation, 30 min
# [15] = Exp. 2, 1 mM, without pre-incubation, 60 min
# [16] = Exp. 2, 2 mM, after pre-incubation, 15
# [17] = Exp. 2, 2 mM, after pre-incubation, 30
# [18] = Exp. 2, 2 mM, after pre-incubation, 60
# [19] = Exp. 2, 2 mM, without pre-incubation, 15 min
# [20] = Exp. 2, 2 mM, without pre-incubation, 30 min
# [21] = Exp. 2, 2 mM, without pre-incubation, 60 min
# [22] = Exp. 3, 1 mM, pre-incubation of sperm 30 min. at 38° C., 15 min
# [23] = Exp. 3, 1 mM, pre-incubation of sperm 30 min. at 38° C., 30 min
# [24] = Exp. 3, 1 mM, pre-incubation of sperm 30 min. at 38° C., 60 min
smiles,measurement,setting,value
"Cn1c(=O)c2c(ncn2C)n(C)c1=O [caffeine, 1,3,7-Trimethylxanthine]","phagocytosis of sperm by PMN in vitro, in words",,decreased
same,% of phagocytosed sperm,"1 mM, without pre-incubation, 1st value column, head not printed",20%
same,% of phagocytosed sperm,"1 mM, without pre-incubation, 2nd value column, head not printed",22%
same,% of phagocytosed sperm,"1 mM, without pre-incubation, 3rd value column, head not printed",18%
same,% of phagocytosed sperm,"2 mM, preincubated 30 min. at 38° C., phagocytosis time 15 min",22%
same,% of phagocytosed sperm,"2 mM, preincubated 30 min. at 38° C., phagocytosis time 30 min",15%
same,% of phagocytosed sperm,"2 mM, preincubated 30 min. at 38° C., phagocytosis time 60 min",29%
same,% of phagocytosed sperm,"2 mM, preincubated 30 min. at 38° C., phagocytosis time 90 min",20%
same,% phagoc. sperm,[1],48%
same,% phagoc. sperm,[2],73%
same,% phagoc. sperm,[3],75%
same,% phag. Sperm,[4],29%
same,% phag. Sperm,[5],28%
same,% phag. Sperm,[6],42%
same,% phagoc. sperm,[7],40%
same,% phagoc. sperm,[8],67%
same,% phagoc. sperm,[9],68%
same,% phag. Sperm,[10],14%
same,% phag. Sperm,[11],26%
same,% phag. Sperm,[12],24%
same,% phagoc. sperm,[13],29%
same,% phagoc. sperm,[14],58%
same,% phagoc. sperm,[15],62%
same,% phag. Sperm,[16],9%
same,% phag. Sperm,[17],17%
same,% phag. Sperm,[18],21%
same,% phagoc. sperm,[19],28%
same,% phagoc. sperm,[20],51%
same,% phagoc. sperm,[21],56%
same,% phag. Sperm,[22],32%
same,% phag. Sperm,[23],45%
same,% phag. Sperm,[24],56%
same,"phagocytosis of sperm, in words","Exp. 4, caffeine added to the semen extender the day before use",inhibits phagocytosis after one day
same,"phagocytosis of sperm by PMN in vitro, in words","Exp. 5, 1 mM",reduced the phagocytosis of sperm by PMN in vitro
same,inhibition at 200 µM,[1],9%
same,inhibition at 200 µM,[2],4%
same,inhibition at 200 µM,[3],3%
same,inhibition at 500 µM,[4],38%
same,inhibition at 500 µM,[5],56%
same,inhibition at 500 µM,[6],33%
same,inhibition at 500 µM,[7],25%
same,inhibition at 500 µM,[8],12%
same,inhibition at 500 µM,[9],12%
same,inhibition at 1000 µM,[10],70%
same,inhibition at 1000 µM,[11],59%
same,inhibition at 1000 µM,[12],62%
same,inhibition at 1000 µM,[13],45%
same,inhibition at 1000 µM,[14],24%
same,inhibition at 1000 µM,[15],19%
same,inhibition at 2000 µM,[16],81%
same,inhibition at 2000 µM,[17],73%
same,inhibition at 2000 µM,[18],67%
same,inhibition at 2000 µM,[19],47%
same,inhibition at 2000 µM,[20],33%
same,inhibition at 2000 µM,[21],27%
same,inhibition at 1000 µM,[22],43%
same,inhibition at 1000 µM,[23],37%
same,inhibition at 1000 µM,[24],29%
